Read-outs that look alike come from different tables or passages of the source.
Legend:
RORγ = RORγ (Homo sapiens, UniProt P51449); assay: RORγ Gal4 Reporter Gene Assay; format: cell-based
Outline: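 Cells at 5×10^5/well were transfected with RORγ fragments fused to the GAL4 DNA-binding domain (CMV promoter), a 5×GAL4-site firefly luciferase reporter and CMV-Renilla luciferase for normalization. About 4 h later serum-free MEM and compound were added (vehicle ≤0.1%). Cultures at 37 °C, 5% CO2; at least triplicates.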

[1] = biological target: RORγ ligand binding domain (LBD) (Homo sapiens (Human), UniProt P51449); assay: TR-FRET Activity Assay (ligand sensing assay, LANCE); settings: for pIC50 (FRET): TR-FRET, interaction of RORγ-LBD with coactivator peptide
Sequence of RORγ ligand binding domain (LBD) (P51449 269-508): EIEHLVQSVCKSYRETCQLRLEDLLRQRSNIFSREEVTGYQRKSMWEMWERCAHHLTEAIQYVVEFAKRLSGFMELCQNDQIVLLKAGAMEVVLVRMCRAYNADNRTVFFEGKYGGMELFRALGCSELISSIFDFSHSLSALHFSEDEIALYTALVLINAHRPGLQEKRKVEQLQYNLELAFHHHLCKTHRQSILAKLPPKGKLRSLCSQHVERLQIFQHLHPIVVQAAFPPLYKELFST
From the text: The ligand-binding domain (LBD) of RORγ was expressed as fusion protein with GST in BL-21 (BL3) cells using the vector pDEST15. Cells were lysed by lysozyme-treatment and sonication, and the fusion proteins purified over glutathione sepharose (Pharmacia) according to the manufacturers instructions. For screening of compounds for their influence on the RORγ-peptide interaction, the LANCE technology (Perkin Elmer) was applied. This method relies on the binding dependent energy transfer from a donor to an acceptor fluorophor attached to the binding partner of interest. For ease of handling and reduction of background from compound fluorescence LANCE technology makes use of generic fluorophore labels and time resolved detection assays were done in a final volume of 25 μL in a 384 well plate, in a Tris-based buffer system (20 mM Tris-HCl pH 6.8; 60 mM KCl, 1 mM DTT; 5 mM MgCl2; 35 ng/μL BSA), containing 20-60 ng/well recombinantly expressed RORγ-LBD fused to GST, 200-600 nM N-terminally biotinylated peptide, 200 ng/well Streptavidin-xlAPC conjugate (Prozyme) and 6-10 ng/well Eu W1024-antiGST (Perkin Elmer). DMSO content of the samples was kept at 1%.
After generation of the Tris-based buffer system, the potentially RORγ modulating ligands were diluted. […] The LANCE signal was detected by a Perkin Elmer EnVision™ Multilabel Counter. […] Ligands that promote the complex formation induce a concentration-dependent increase in time-resolved fluorescent signal.
Y is the response. Y starts at Bottom and goes to Top with a sigmoidal shape.
This is identical to the “four parameter logistic equation”. The IC50 values are calculated using this equation.

[2] = firefly (FF) luciferase, 293T cells, read-out: pIC50 (FF) (converted)
[3] = renilla normalised (RENnorm) luciferase, 293T cells, read-out: pIC50 (REN) (converted)
[4] = firefly (FF) luciferase, 293T cells
[5] = renilla normalised (RENnorm) luciferase, 293T cells

Sequence of RORγ (P51449 whole entry, looked up, the tested form may be a part): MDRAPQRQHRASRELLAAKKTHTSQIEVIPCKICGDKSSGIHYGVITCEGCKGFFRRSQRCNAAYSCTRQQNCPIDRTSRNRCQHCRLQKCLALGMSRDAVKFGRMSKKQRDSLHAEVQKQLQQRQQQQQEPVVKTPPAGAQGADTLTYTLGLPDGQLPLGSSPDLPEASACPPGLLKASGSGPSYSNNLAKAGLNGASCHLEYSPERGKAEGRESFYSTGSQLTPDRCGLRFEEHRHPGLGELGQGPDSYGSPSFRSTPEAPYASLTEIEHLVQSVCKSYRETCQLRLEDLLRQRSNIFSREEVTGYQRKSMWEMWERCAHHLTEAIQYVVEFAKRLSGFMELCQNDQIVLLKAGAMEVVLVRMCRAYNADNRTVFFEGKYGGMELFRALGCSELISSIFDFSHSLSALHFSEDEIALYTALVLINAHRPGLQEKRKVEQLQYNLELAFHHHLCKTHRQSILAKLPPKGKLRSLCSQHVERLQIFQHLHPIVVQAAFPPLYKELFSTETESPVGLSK

| SMILES | IC50 (RORγ; [2]) [µM] | IC50 (RORγ; [3]) [µM] | IC50 [1] [µM] | pIC50 (FF) (RORγ; [4]) | pIC50 (REN) (RORγ; [5]) | pIC50 (FRET) [1] | pIC50 (FF) (RORγ) | pIC50 (REN) (RORγ) |
| --- | --- | --- | --- | --- | --- | --- | --- | --- |
| CCCc1nc(C(=O)N[C@H]2C[C@H](C(=O)O)C2)sc1-c1ccc(S(=O)(=O)NC(C)(C)C)c(Cl)c1Cl [300/6] | 0.126 | 0.158 | 0.2 | – | – | – | – | – |
| CCS(=O)(=O)c1ccc(CC(=O)Nc2nc(-c3ccccc3)c(Cc3ccccc3)s2)cc1 [Example 211, N-(5-Benzyl-4-phenylthiazol-2-yl)-2-(4-(ethylsulfonyl)phenyl)acetamide] | – | – | – | 6.3 | 6.4 | 5.8 | – | – |
| CC(C)(C)NS(=O)(=O)c1ccc(-c2sc(C(=O)NCc3ncc(S(C)(=O)=O)s3)nc2CC2CCCCC2)c(Cl)c1Cl [15/7] | – | – | – | – | – | 7.2/8.3/8.4 | 7.2/8.3/8.4 | 7.2/8.3/8.4 |
| CSc1cnc(CNC(=O)c2nc(CC3CCCCC3)c(-c3ccc(S(=O)(=O)NC(C)(C)C)c(Cl)c3Cl)s2)s1 [6/40] | – | – | – | – | – | 7.0/8.2/8.3 | 7.0/8.2/8.3 | 7.0/8.2/8.3 |
| CC(C)(C)NS(=O)(=O)c1ccc(-c2oc(C(=O)N3CC4(CCOCC4)C3)nc2CC2CCCCC2)c2ccccc12 [100/10] | – | – | – | – | – | 6.4/7.2/7.4 | 6.4/7.2/7.4 | 6.4/7.2/7.4 |
| N#CC1(NS(=O)(=O)c2ccc(-c3sc(C(=O)N4CC5(CCS(=O)(=O)CC5)C4)nc3CC3CCCCC3)c3ccccc23)CC1 [Example 14, N-(1-Cyanocyclopropyl)-4-(4-(cyclohexylmethyl)-2-(7,7-dioxido-7-thia-2-azaspiro[3.5]nonane-2-carbonyl)thiazol-5-yl)naphthalene-1-sulfonamide] | – | – | – | – | – | 6.7/7.6/7.7 | 6.7/7.6/7.7 | 6.7/7.6/7.7 |
| CC(C)(C)c1cc(-c2sc(C(=O)N[C@H]3C[C@H](C(=O)O)C3)nc2CC2CCCCC2)cc(C(C)(C)C)n1 [8/8] | 0.0631 | 0.0794 | 0.501 | – | – | – | – | – |
| CC(C)(C)c1cc(-c2sc(C(=O)NC3CCOCC3)nc2CC2CCCCC2)cc(C2(C)CC2)c1 [Example 8, 5-(3-(tert-Butyl)-5-(1-methylcyclopropyl)phenyl)-4-(cyclohexylmethyl)-N-(tetrahydro-2H-pyran-4-yl)thiazole-2-carboxamide] | – | – | – | – | – | 7.0/7.3/7.5 | 7.0/7.3/7.5 | 7.0/7.3/7.5 |
| Cc1c(S(=O)(=O)NC(C)(C)C)ccc(-c2sc(C(=O)N[C@H]3C[C@H](C(=O)O)C3)nc2CC2CCCCC2)c1C(F)(F)F [7/14] | – | – | – | – | – | 5.8/8.5/8.7 | 5.8/8.5/8.7 | 5.8/8.5/8.7 |
| CC(C)(O)CNC(=O)c1nc(CC2CCCCC2)c(-c2ccc(S(=O)(=O)NC3(C(N)=O)CC3)c3ccccc23)s1 [8/3] | – | – | – | – | – | 6.4/7.5/7.6 | 6.4/7.5/7.6 | 6.4/7.5/7.6 |
| CC(C)(C)c1cc(-c2ccc(C(N)=O)cc2CC2CCCCC2)cc(C(C)(C)C)c1 [Example 209] | – | – | – | – | – | 6.4/6.2/6.2 | 6.4/6.2/6.2 | 6.4/6.2/6.2 |
| CC(C)(C)NS(=O)(=O)c1ccc(-c2sc(C(=O)NC3CCS(=O)(=O)CC3)nc2C2CCCCC2)c2ccccc12 [300/2] | – | – | – | – | – | 6.9/8.2/8.2 | 6.9/8.2/8.2 | 6.9/8.2/8.2 |
| CC1(c2cc(C(=O)NC3(C#N)CC3)cc(-c3sc(C(=O)NC4CCS(=O)(=O)CC4)nc3CC3CCCCC3)c2)CC1 [10/2] | – | – | – | – | – | 6.6/7.3/7.4 | 6.6/7.3/7.4 | 6.6/7.3/7.4 |
| O=C(N[C@H]1C[C@H](C(=O)O)C1)c1nc(CC2CCCCC2)c(-c2ccc(OCC(F)(F)F)c3ccccc23)s1 [7/22] | 0.316 | 0.631 | > 20 | – | – | – | – | – |
| CC(C)(C)NS(=O)(=O)c1ccc(-c2sc(C(=O)NCC(C)(C)C(=O)O)nc2CC2CCCCC2)cc1C(F)(F)F [9/3] | – | – | – | – | – | 6.4/7.2/7.4 | 6.4/7.2/7.4 | 6.4/7.2/7.4 |
| CC(C)(C)NS(=O)(=O)c1ccc(-c2sc(C(=O)NC3C[S+]([O-])C3)nc2CC2CCCCC2)cc1C(C)(C)O (stereo not drawn) [15/2] | – | – | – | – | – | 6.6/7.3/7.3 | 6.6/7.3/7.3 | 6.6/7.3/7.3 |
| CC(C)(C)NS(=O)(=O)c1ccc(-c2sc(C(=O)N[C@H]3C[C@H](C(=O)O)C3)nc2CC2CCCCC2)c(Cl)c1C(F)(F)F [7/12] | – | – | – | – | – | 6.2/8.0/8.2 | 6.2/8.0/8.2 | 6.2/8.0/8.2 |
| CC(C)(C)NS(=O)(=O)c1ccc(-c2sc(C(=O)NC3CSC3)nc2CC2CCCCC2)c(Cl)c1Cl [6/30] | – | – | – | – | – | 7.2/8.7/8.7 | 7.2/8.7/8.7 | 7.2/8.7/8.7 |
| CC(C)(C)c1cc(-c2sc(C(=O)N[C@H]3C[C@H](C(=O)O)C3)[n+]([O-])c2CC2CCCCC2)cc(C(C)(C)C)n1 [Example 22, 2-(((trans)-3-Carboxycyclobutyl)carbamoyl)-4-(cyclohexylmethyl)-5-(2,6-di-tert-butylpyridin-4-yl)thiazole 3-oxide] | – | – | 0.398 | 7.1 | 7.1 | – | – | – |

| SMILES | IC50 (RORγ; [2]) [µM] | IC50 (RORγ; [3]) [µM] | IC50 [1] [µM] | pIC50 (FF) (RORγ; [4]) | pIC50 (REN) (RORγ; [5]) | pIC50 (FRET) [1] | pIC50 (FF) (RORγ) | pIC50 (REN) (RORγ) |
| --- | --- | --- | --- | --- | --- | --- | --- | --- |
| CC(C)(C)NS(=O)(=O)c1ccc(-c2nc(C(=O)NC34CCC(C(=O)O)(CC3)CC4)oc2CC2CCCCC2)c2ccccc12 [Example 103/1] | – | – | – | – | – | 6.2/7.4/7.4 | 6.2/7.4/7.4 | 6.2/7.4/7.4 |
| CC(C)(O)CNC(=O)c1nc(CC2CCC2)c(-c2ccc(S(=O)(=O)NC(C)(C)C)c3ccccc23)s1 [21/2] | – | – | – | – | – | 6.8/8.4/8.5 | 6.8/8.4/8.5 | 6.8/8.4/8.5 |
| CC(C)(C)NS(=O)(=O)c1ccc(-c2sc(C(=O)NC3CCOCC3)nc2CC2CCCCC2)cc1C(C)(C)O [6/22] | – | – | – | – | – | 6.8/7.7/7.7 | 6.8/7.7/7.7 | 6.8/7.7/7.7 |
| CC(C)(C)c1cc(-c2nc(C(=O)NC3COC3)ncc2CC2CCCCC2)cc(C(C)(C)C)c1 [Example 207, 5-(Cyclohexylmethyl)-4-(3,5-di-tert-butylphenyl)-N-(oxetan-3-yl)pyrimidine-2-carboxamide] | – | – | – | – | – | 5.4/6.4/6.5 | 5.4/6.4/6.5 | 5.4/6.4/6.5 |
| CC(C)(C)NS(=O)(=O)c1ccc(-c2sc(C(=O)NC3C[S+]([O-])C3)nc2CC2CCCCC2)c(Cl)c1Cl (stereo not drawn) [15/5] | – | – | – | – | – | 6.9/8.5/8.4 | 6.9/8.5/8.4 | 6.9/8.5/8.4 |
| CC(C)(C)NS(=O)(=O)c1ccc(-c2sc(C(=O)NC34CCC(C(=O)O)(CC3)CC4)nc2CC2CCCCC2)c2ccccc12 [6/8] | – | – | – | – | – | 6.3/8.2/8.2 | 6.3/8.2/8.2 | 6.3/8.2/8.2 |
| O=C(c1nc(CC2CCCCC2)c(-c2ccc(S(=O)(=O)NC3CCOCC3)c3ccccc23)s1)N1CC2(CCS(=O)(=O)CC2)C1 [21/9] | – | – | – | – | – | 6.2/7.3/7.4 | 6.2/7.3/7.4 | 6.2/7.3/7.4 |
| CC(C)(C)NS(=O)(=O)c1ccc(-c2sc(C(=O)N[C@H]3C[C@H](C(=O)O)C3)nc2CC2CCCCC2)cc1C(C)(C)O [7/17] | – | – | – | – | – | 6.5/8.0/8.0 | 6.5/8.0/8.0 | 6.5/8.0/8.0 |
| CC(C)(C)NS(=O)(=O)c1ccc(-c2sc(C(=O)N[C@H]3C[C@H](C(=O)O)C3)nc2CC2CCCCC2)c2c(F)cccc12 [19/9] | – | – | – | – | – | 6.3/7.0/7.1 | 6.3/7.0/7.1 | 6.3/7.0/7.1 |
| CC(C)(C)c1cc(-c2cc(C(N)=O)ccc2CC2CCCCC2)cc(C(C)(C)C)c1 [Example 208, 3′,5′-Di-tert-butyl-6-(cyclohexylmethyl)-[1,1′-biphenyl]-3-carboxamide] | – | – | – | – | – | 6.5/6.3/6.3 | 6.5/6.3/6.3 | 6.5/6.3/6.3 |
| CC(C)(C)NS(=O)(=O)c1ccc(-c2oc(C(=O)NC3CCC(C)(C(=O)O)CC3)nc2CC2CCCCC2)c2ccccc12 (stereo not drawn) [100/22] | – | – | – | – | – | 5.9/6.8/7.0 | 5.9/6.8/7.0 | 5.9/6.8/7.0 |
| CC(C)(C)NS(=O)(=O)c1ccc(-c2sc(C(=O)NC3CCS(=O)(=O)CC3)nc2CC2CCCCC2)c(Cl)c1Cl [6/43] | – | – | – | – | – | 7.0/8.7/8.7 | 7.0/8.7/8.7 | 7.0/8.7/8.7 |
| CC(C)(C)NS(=O)(=O)c1ccc(-c2sc(S(N)(=O)=O)nc2CC2CCCCC2)cc1C(F)(F)F [13/2] | – | – | – | – | – | 6.5/6.7/6.8 | 6.5/6.7/6.8 | 6.5/6.7/6.8 |
| CC(C)(C)c1cc(-c2oc(C(=O)NC3CCOCC3)nc2CC2CCCCC2)cc(C2(C)CC2)c1 [100/18] | – | – | – | – | – | 6.9/6.9/6.9 | 6.9/6.9/6.9 | 6.9/6.9/6.9 |
| CC(C)(C)NS(=O)(=O)c1ccc(-c2sc(C(=O)N[C@H]3C[C@@H](S(C)(=O)=O)C3)nc2CC2CCCCC2)c(Cl)c1Cl [6/42] | – | – | – | – | – | 7.2/8.2/8.4 | 7.2/8.2/8.4 | 7.2/8.2/8.4 |
| COC(C)(C)c1cc(-c2sc(C(=O)N[C@H]3C[C@H](C(=O)O)C3)nc2CC2CCCCC2)cc(C2(C)CC2)c1 [9/5] | – | – | – | – | – | 6.7/7.8/7.9 | 6.7/7.8/7.9 | 6.7/7.8/7.9 |
| CC(C)(C)NS(=O)(=O)c1ccc(-c2sc(C(=O)NCC3(O)CCS(=O)(=O)CC3)nc2CC2CCCCC2)c2ccccc12 [6/5] | – | – | – | – | – | 6.6/8.5/8.7 | 6.6/8.5/8.7 | 6.6/8.5/8.7 |
| CC(C)(C)NS(=O)(=O)c1ccc(-c2sc(S(N)(=O)=O)nc2CC2CCCCC2)cc1C(C)(C)C [Example 13/1] | – | – | – | – | – | 6.3/6.6/6.6 | 6.3/6.6/6.6 | 6.3/6.6/6.6 |
| CC(C)(C)NC(=O)c1ccc(-c2sc(C(=O)NC3CCS(=O)(=O)CC3)nc2CC2CCCCC2)c2ccccc12 [7/25] | – | – | – | – | – | 6.2/6.6/6.5 | 6.2/6.6/6.5 | 6.2/6.6/6.5 |

Source: patent US10301272B2, “Carboxamide or sulfonamide substituted thiazoles and related derivatives as modulators for the orphan nuclear receptor ROR[γ]” (Phenex Pharmaceuticals AG, priority 2012, dated 2019)
